Measured values taken from patent US9873709B2 (priority 2013, dated 2018).
Read-outs that look alike come from different tables or passages of the source.

Experiments:
[1] = target: isolated recombinant JAK2 kinase domain (Homo sapiens (Human), UniProt O60674); conditions: read-out: JAK2 Ki
[2] = tested on: JAK1-dependent STAT6 phosphorylation downstream of IL-13 stimulation in TF-1 human erythroleukemia cells; experiment: cells; conditions: TF-1, read-out: IL-13-pSTAT6 IC50
[3] = tested on: JAK1-dependent STAT6 phosphorylation downstream of IL-13 stimulation in BEAS-2B human bronchial epithelial cells; experiment: cells; conditions: read-out: IL13-pSTAT6 BEASB2B IC50
[4] = isolated recombinant JAK2 kinase domain, 25 μM ATP

isolated recombinant JAK2 kinase domain, sequence (O60674 849-1124): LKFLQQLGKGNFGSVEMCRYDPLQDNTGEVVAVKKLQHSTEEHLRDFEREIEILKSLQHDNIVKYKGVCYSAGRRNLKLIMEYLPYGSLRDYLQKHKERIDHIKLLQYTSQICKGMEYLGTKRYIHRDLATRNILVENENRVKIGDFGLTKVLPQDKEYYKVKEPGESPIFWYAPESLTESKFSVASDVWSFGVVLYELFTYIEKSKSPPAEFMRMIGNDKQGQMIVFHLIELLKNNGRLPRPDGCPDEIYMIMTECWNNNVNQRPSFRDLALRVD

Ki [1, 4] | IC50 [2] | Compound | IC50 [3] | Ki [1]
0.0025 µM | 0.0737 µM | CN1CCC(N(C)C(=O)c2ccc(Nc3nc4c(N5CCC(OCC#N)CC5)cccn4n3)cc2)CC1 [Example 1-23, 4-[[8-[4-(cyanomethoxy)-1-piperidyl]-[1,2,4]triazolo[1,5-a]pyridin-2-yl]amino]-N-methyl-N-(1-methyl-4-piperidyl)benzamide] |  | 
0.00027 µM | 0.252 µM | CN1CCC(N(C)C(=O)c2ccc(Nc3nc4c(N5CCC(CC(N)=O)(c6ccccc6)CC5)cccn4n3)cc2)CC1 [Example 1-30, 4-[[8-[4-(2-amino-2-oxo-ethyl)-4-phenyl-1-piperidyl]-[1,2,4]triazolo[1,5-a]pyridin-2-yl]amino]-N-methyl-N-(1-methyl-4-piperidyl)benzamide] |  | 
0.00861 µM | 0.915 µM | CN1CCC(N(C)C(=O)c2ccc(Nc3nc4c(N5CCN(C(=O)N6CC(C)(C)C6)CC5)cccn4n3)cc2)CC1 [Example 1-34, 4-[[8-[4-(3,3-dimethylazetidine-1-carbonyl)piperazin-1-yl]-[1,2,4]triazolo[1,5-a]pyridin-2-yl]amino]-N-methyl-N-(1-methyl-4-piperidyl)benzamide] |  | 
0.00432 µM | 0.142 µM | CCc1ccc(C2(O)CCN(c3cccn4nc(Nc5ccc(C(=O)N(C)C6CCN(C)CC6)cc5)nc34)CC2)cc1 [Example 1-36, 4-[[8-[4-(4-ethylphenyl)-4-hydroxy-1-piperidyl]-[1,2,4]triazolo[1,5-a]pyridin-2-yl]amino]-N-methyl-N-(1-methyl-4-piperidyl)benzamide] |  | 
0.00703 µM | 0.168 µM | COCCOc1cc(COC2CCN(c3cccn4nc(Nc5ccc(C(=O)N(C)C6CCN(C)CC6)cc5)nc34)CC2)ccn1 [Example 1-44, 4-[[8-[4-[[2-(2-methoxyethoxy)-4-pyridyl]methoxy]-1-piperidyl]-[1,2,4]triazolo[1,5-a]pyridin-2-yl]amino]-N-methyl-N-(1-methyl-4-piperidyl)benzamide] |  | 
0.00085 µM | 0.0292 µM | CN1CCN(C2CCN(C(=O)c3ccc(Nc4nc5c(N6CCC(O)(c7ccc(Cl)cc7)CC6)cccn5n4)cc3)CC2)CC1 [Example 1-117, [4-[[8-[4-(4-chlorophenyl)-4-hydroxy-1-piperidyl]-[1,2,4]triazolo[1,5-a]pyridin-2-yl]amino]phenyl]-[4-(4-methylpiperazin-1-yl)-1-piperidyl]methanone] |  | 
 |  | CC1CN(C2CCN(C(=O)c3ccc(Nc4nc5c(N6CCC(O)(c7ccc(Cl)cc7)CC6)cccn5n4)cc3)CC2)CC(C)O1 (stereo not shown) [Example 1-118, [4-[[8-[4-(4-chlorophenyl)-4-hydroxy-1-piperidyl]-[1,2,4]triazolo[1,5-a]pyridin-2-yl]amino]phenyl]-[4-(2,6-dimethylmorpholin-4-yl)-1-piperidyl]methanone] | 0.112 µM | 
0.0007 µM | 0.0258 µM | O=C(c1ccc(Nc2nc3c(N4CCC(O)(c5ccc(Cl)cc5)CC4)cccn3n2)cc1)N1CCN(Cc2cccnc2)CC1 [Example 1-123, [4-[[8-[4-(4-chlorophenyl)-4-hydroxy-1-piperidyl]-[1,2,4]triazolo[1,5-a]pyridin-2-yl]amino]phenyl]-[4-(3-pyridylmethyl)piperazin-1-yl]methanone] |  | 
0.00174 µM | 0.0377 µM | CC(C)N1CCC(CN(C)C(=O)c2ccc(Nc3nc4c(N5CCC(O)(c6ccc(Cl)cc6)CC5)cccn4n3)cc2)C1 (stereo not shown) [Example 1-129, 4-[[8-[4-(4-chlorophenyl)-4-hydroxy-1-piperidyl]-[1,2,4]triazolo[1,5-a]pyridin-2-yl]amino]-N-[(1-isopropylpyrrolidin-3-yl)methyl]-N-methyl-benzamide] |  | 
0.00356 µM | 0.135 µM | CN(Cc1cccnc1)C(=O)c1ccc(Nc2nc3c(N4CCC(O)(c5ccc(Cl)cc5)CC4)cccn3n2)cc1 [Example 1-138, 4-[[8-[4-(4-chlorophenyl)-4-hydroxy-1-piperidyl]-[1,2,4]triazolo[1,5-a]pyridin-2-yl]amino]-N-methyl-N-(3-pyridylmethyl)benzamide] |  | 
0.00195 µM | 0.0206 µM | CN(C)CCN1CCN(C(=O)c2ccc(Nc3nc4c(N5CCC(O)(c6ccc(Cl)cc6)CC5)cccn4n3)cc2)CC1 [Example 1-139, [4-[[8-[4-(4-chlorophenyl)-4-hydroxy-1-piperidyl]-[1,2,4]triazolo[1,5-a]pyridin-2-yl]amino]phenyl]-[4-[2-(dimethylamino)ethyl]piperazin-1-yl]methanone] |  | 
0.00141 µM | 0.0665 µM | O=C(c1ccc(Nc2nc3c(N4CCC(O)(c5ccc(Cl)cc5)CC4)cccn3n2)cc1)N1CCCC1c1ccncc1 (stereo not shown) [Example 1-147, [4-[[8-[4-(4-chlorophenyl)-4-hydroxy-1-piperidyl]-[1,2,4]triazolo[1,5-a]pyridin-2-yl]amino]phenyl]-[2-(4-pyridyl)pyrrolidin-1-yl]methanone] |  | 
0.00114 µM | 0.026 µM | CNC(=O)C1CN(C(=O)c2ccc(Nc3nc4c(N5CCC(O)(c6ccc(Cl)cc6)CC5)cccn4n3)cc2)CCN1Cc1ccccc1 (stereo not shown) [Example 1-153, 1-benzyl-4-[4-[[8-[4-(4-chlorophenyl)-4-hydroxy-1-piperidyl]-[1,2,4]triazolo[1,5-a]pyridin-2-yl]amino]benzoyl]-N-methyl-piperazine-2-carboxamide] |  | 
0.00064 µM | 0.0373 µM | CN1CCC(CCNC(=O)c2ccc(Nc3nc4c(N5CCC(O)(c6ccc(Cl)cc6)CC5)cccn4n3)cc2)CC1 [Example 1-154, 4-[[8-[4-(4-chlorophenyl)-4-hydroxy-1-piperidyl]-[1,2,4]triazolo[1,5-a]pyridin-2-yl]amino]-N-[2-(1-methyl-4-piperidyl)ethyl]benzamide] |  | 
0.00286 µM | 0.0121 µM | N#CCCN1CCN(C(=O)c2ccc(Nc3nc4c(N5CCC(O)(c6ccc(Cl)cc6)CC5)cccn4n3)cc2)CC1 [Example 1-167, 3-[4-[4-[[8-[4-(4-chlorophenyl)-4-hydroxy-1-piperidyl]-[1,2,4]triazolo[1,5-a]pyridin-2-yl]amino]benzoyl]piperazin-1-yl]propanenitrile] |  | 
0.00098 µM | 0.0155 µM | CN1CCCC(CN(C)C(=O)c2ccc(Nc3nc4c(N5CCC(O)(c6ccc(Cl)cc6)CC5)cccn4n3)cc2)C1 (stereo not shown) [Example 1-170, 4-[[8-[4-(4-chlorophenyl)-4-hydroxy-1-piperidyl]-[1,2,4]triazolo[1,5-a]pyridin-2-yl]amino]-N-methyl-N-[(1-methyl-3-piperidyl)methyl] benzamide] |  | 
0.00245 µM | 0.0231 µM | O=C(NCCN1CCCCC1)c1ccc(Nc2nc3c(N4CCC(O)(c5ccc(Cl)cc5)CC4)cccn3n2)cc1 [Example 1-173, 4-[[8-[4-(4-chlorophenyl)-4-hydroxy-1-piperidyl]-[1,2,4]triazolo[1,5-a]pyridin-2-yl]amino]-N-[2-(1-piperidyl)ethyl]benzamide] |  | 
0.00231 µM | 0.0311 µM | CNC(=O)C1CN(C(C)C)CCN1C(=O)c1ccc(Nc2nc3c(N4CCC(O)(c5ccc(Cl)cc5)CC4)cccn3n2)cc1 (stereo not shown) [Example 1-174, 1-[4-[[8-[4-(4-chlorophenyl)-4-hydroxy-1-piperidyl]-[1,2,4]triazolo[1,5-a]pyridin-2-yl]amino]benzoyl]-4-isopropyl-N-methyl-piperazine-2-carboxamide] |  | 
0.00107 µM | 0.0983 µM | CN1CCC(OC(=O)c2ccc(Nc3nc4c(N5CCC(O)(c6ccc(Cl)cc6)CC5)cccn4n3)cc2)CC1 [Example 1-178, (1-methyl-4-piperidyl) 4-[[8-[4-(4-chlorophenyl)-4-hydroxy-1-piperidyl]-[1,2,4]triazolo[1,5-a]pyridin-2-yl]amino]benzoate] |  | 
 |  | CN1CCC(N(C)C(=O)c2ccc(Nc3nc4c(N5CCC(c6ccc(Cl)cc6)(C(O)C(F)(F)F)CC5)cccn4n3)cc2)CC1 (stereo not shown) [Example 1-253, 4-[[8-[4-(4-chlorophenyl)-4-(2,2,2-trifluoro-1-hydroxy-ethyl)-1-piperidyl]-[1,2,4]triazolo[1,5-a]pyridin-2-yl]amino]-N-methyl-N-(1-methyl-4-piperidyl)benzamide] | 0.418 µM | 
 |  | CN1CCC(N(C)C(=O)c2ccc(Nc3nc4c(N5CCC(c6ccc(Cl)cc6)(C(O)CO)CC5)cccn4n3)cc2)CC1 (stereo not shown) [Example 1-270, 4-[[8-[4-(4-chlorophenyl)-4-(1,2-dihydroxyethyl)-1-piperidyl]-[1,2,4]triazolo[1,5-a]pyridin-2-yl]amino]-N-methyl-N-(1-methyl-4-piperidyl)benzamide] | 0.114 µM | 
0.00045 µM | 0.125 µM | CN1CCC(N(C)C(=O)c2ccc(Nc3nc4c(N5CCC(CC(N)=O)(c6ccc(Cl)cc6)CC5)cccn4n3)cc2)CC1 [Example 1-298] |  | 
0.00055 µM | 0.0263 µM | CN1CCC(N(C)C(=O)c2ccc(Nc3nc4c(N5CCC(CC(=O)N(C)C)(c6ccc(Cl)cc6)CC5)cccn4n3)cc2)CC1 [Example 1-300, 4-([8-[4-(4-chlorophenyl)-4-[(dimethylcarbamoyl)methyl]piperidin-1-yl]-[1,2,4]triazolo[1,5-a]pyridin-2-yl]amino)-N-methyl-N-(1-methylpiperidin-4-yl)benzamide] |  | 

Compound | Ki [1, 4] | IC50 [2] | IC50 [3] | Ki [1]
CN1CCC(N(C)C(=O)c2ccc(Nc3nc4c(N5CCC(CO)(c6ccc(Cl)cc6)CC5)cccn4n3)cc2)CC1 [Example 1-246] |  | 0.0054 µM |  | 0.00033 µM
CN1CCC(N(C)C(=O)c2ccc(Nc3nc4c(C5=CCC(CC#N)(c6ccc(Cl)cc6)CC5)cccn4n3)cc2)CC1 (stereo not shown) [Example 1-294, 4-([8-[4-(4-chlorophenyl)-4-(cyanomethyl)cyclohex-1-en-1-yl]-[1,2,4]triazolo[1,5-a]pyridin-2-yl]amino)-N-methyl-N-(1-methylpiperidin-4-yl)benzamide] |  | 0.0627 µM |  | 0.0004 µM
CC(C)CN1CCC(N(C)C(=O)Cn2cc(Nc3nc4c(C5=CCN(C(=O)CCC(F)(F)F)CC5)cccn4n3)cn2)CC1 [Example 1-297, N-methyl-N-[1-(2-methylpropyl)piperidin-4-yl]-2-[4-([8-[1-(4,4,4-trifluorobutanoyl)-1,2,3,6-tetrahydropyridin-4-yl]-[1,2,4]triazolo[1,5-a]pyridin-2-yl]amino)-1H-pyrazol-1-yl]acetamide] |  | 0.0367 µM |  | 0.00944 µM
